The text below walks through data of ChEMBL document CHEMBL1201862, “PubChem BioAssay data set” (2004).

In assay [1] the target is Luciferin 4-monooxygenase (Photinus pyralis, UniProt P08659). Kind of assay: Counter Screen for Luciferase-based Assay Positives. [Related pubchem assays: 620, 618, 411 ].
For a further assay, the system named is HT-1080. Kind of assay: HT1080 cell viability loss – fluorescence readout (AID 620). The class given is functional, cell-based. As to conditions: Homo sapiens.
A short description of assay [2]: Luminescent dose response cell-based high throughput screening assay for inhibitors of the Janus kinase 2 mutant JAK2V617F. [Related pubchem assays: 1446 (Primary screen.), 1521 (Confirmation assay.), 1486 (Counter screen.)]. The class given is functional. In general terms: A counterscreen serves to expose hits that act by an unwanted route or on another target.

The subject of the next assay is HEK293. Briefly: Fluorescence-based counterscreen for potentiators or agonists of NPY-Y2: cell-based high-throughput dose response assay to identify inhibitors of cyclic nucleotide gated ion channel (CNGC) activity. In this assay, the parental HEK293 cell line transfected with a cyclic-nucleotide gated ion channel (CNGC)-based cAMP sensor is used to measure inhibition of isoproterenol-induced CNGC activity by test compound. The class given is functional. As to conditions: Homo sapiens.

Assay [3] concerns the target T1, Neuropeptide Y receptor type 2 (Homo sapiens, UniProt P49146).
T1 sequence (P49146 whole entry): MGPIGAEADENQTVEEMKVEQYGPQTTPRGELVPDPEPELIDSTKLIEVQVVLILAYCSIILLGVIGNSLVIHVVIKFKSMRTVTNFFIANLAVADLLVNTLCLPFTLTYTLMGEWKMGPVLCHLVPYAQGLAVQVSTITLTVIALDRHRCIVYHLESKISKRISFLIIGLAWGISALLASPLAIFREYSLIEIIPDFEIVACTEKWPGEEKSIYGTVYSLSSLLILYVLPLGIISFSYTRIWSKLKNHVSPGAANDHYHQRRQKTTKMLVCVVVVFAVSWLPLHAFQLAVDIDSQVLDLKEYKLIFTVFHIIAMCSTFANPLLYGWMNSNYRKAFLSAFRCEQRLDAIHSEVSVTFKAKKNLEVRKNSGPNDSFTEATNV
Briefly: Fluorescence-based cell-based high-throughput dose response assay for agonists of NPY-Y2. [Related pubchem assays: 1703 (Screening assay (CNGC inhibitors).), 1359 (Screening assay (NPY-Y2 potentiators or agonists).), 1304 (Screening assay (NPY-Y1 potentiators or agonists).), 1710 (Screening assay (NPY-Y2 agonists).), 1791 (Summary AID.)]. It is filed as functional.

Assay [4] has as its target T2, Neuropeptide Y receptor type 1 (Homo sapiens, UniProt P25929).
T2 sequence (P25929 whole entry): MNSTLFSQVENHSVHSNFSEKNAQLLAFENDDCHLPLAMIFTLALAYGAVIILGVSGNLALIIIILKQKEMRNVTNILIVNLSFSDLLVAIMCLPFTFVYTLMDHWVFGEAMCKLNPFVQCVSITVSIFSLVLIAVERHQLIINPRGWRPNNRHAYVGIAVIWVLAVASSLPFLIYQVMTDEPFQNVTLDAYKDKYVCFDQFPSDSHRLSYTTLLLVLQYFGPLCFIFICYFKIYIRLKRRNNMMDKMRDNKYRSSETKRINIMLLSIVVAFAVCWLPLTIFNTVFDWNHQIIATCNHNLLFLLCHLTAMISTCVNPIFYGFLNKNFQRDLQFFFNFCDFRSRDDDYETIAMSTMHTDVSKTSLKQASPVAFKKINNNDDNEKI
Briefly: Fluorescence-based counterscreen for agonists of NPY-Y2: cell-based high-throughput dose response assay for agonists of NPY-Y1. It is filed as functional.

Assay [5] has as its target T3, Replicative DNA helicase DnaB (Mycobacterium tuberculosis, UniProt P9WMR3).
T3 sequence (P9WMR3 whole entry): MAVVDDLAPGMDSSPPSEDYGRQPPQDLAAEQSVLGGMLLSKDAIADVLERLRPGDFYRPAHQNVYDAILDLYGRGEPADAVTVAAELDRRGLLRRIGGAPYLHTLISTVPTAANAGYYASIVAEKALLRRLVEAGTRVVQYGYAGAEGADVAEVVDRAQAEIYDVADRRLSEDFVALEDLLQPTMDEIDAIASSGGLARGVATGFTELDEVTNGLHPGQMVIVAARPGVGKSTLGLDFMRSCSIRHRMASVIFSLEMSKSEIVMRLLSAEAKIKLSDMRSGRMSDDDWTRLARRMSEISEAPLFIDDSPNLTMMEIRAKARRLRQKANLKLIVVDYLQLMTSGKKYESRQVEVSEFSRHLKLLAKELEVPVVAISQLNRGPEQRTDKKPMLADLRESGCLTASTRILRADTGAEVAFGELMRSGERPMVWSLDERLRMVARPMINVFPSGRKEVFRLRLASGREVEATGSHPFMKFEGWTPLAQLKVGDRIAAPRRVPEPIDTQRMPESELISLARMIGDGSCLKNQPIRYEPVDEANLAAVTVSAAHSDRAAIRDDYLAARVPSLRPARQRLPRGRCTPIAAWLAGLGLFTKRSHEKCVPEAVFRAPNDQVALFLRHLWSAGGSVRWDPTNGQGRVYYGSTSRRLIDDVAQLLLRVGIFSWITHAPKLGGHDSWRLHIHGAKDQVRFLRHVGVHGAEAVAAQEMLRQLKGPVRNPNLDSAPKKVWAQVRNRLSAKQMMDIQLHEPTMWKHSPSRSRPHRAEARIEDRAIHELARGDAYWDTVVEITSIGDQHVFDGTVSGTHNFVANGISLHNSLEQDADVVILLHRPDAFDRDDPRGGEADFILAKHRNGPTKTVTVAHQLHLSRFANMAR
Briefly: DnaB intein splicing inhibitors, dose response, biochemical, cell-free fluorescence (AID 449749). The class given is functional.

For another assay, the target named is T4, Protein RecA (Mycobacterium tuberculosis, UniProt P9WHJ3).
T4 sequence (P9WHJ3 whole entry): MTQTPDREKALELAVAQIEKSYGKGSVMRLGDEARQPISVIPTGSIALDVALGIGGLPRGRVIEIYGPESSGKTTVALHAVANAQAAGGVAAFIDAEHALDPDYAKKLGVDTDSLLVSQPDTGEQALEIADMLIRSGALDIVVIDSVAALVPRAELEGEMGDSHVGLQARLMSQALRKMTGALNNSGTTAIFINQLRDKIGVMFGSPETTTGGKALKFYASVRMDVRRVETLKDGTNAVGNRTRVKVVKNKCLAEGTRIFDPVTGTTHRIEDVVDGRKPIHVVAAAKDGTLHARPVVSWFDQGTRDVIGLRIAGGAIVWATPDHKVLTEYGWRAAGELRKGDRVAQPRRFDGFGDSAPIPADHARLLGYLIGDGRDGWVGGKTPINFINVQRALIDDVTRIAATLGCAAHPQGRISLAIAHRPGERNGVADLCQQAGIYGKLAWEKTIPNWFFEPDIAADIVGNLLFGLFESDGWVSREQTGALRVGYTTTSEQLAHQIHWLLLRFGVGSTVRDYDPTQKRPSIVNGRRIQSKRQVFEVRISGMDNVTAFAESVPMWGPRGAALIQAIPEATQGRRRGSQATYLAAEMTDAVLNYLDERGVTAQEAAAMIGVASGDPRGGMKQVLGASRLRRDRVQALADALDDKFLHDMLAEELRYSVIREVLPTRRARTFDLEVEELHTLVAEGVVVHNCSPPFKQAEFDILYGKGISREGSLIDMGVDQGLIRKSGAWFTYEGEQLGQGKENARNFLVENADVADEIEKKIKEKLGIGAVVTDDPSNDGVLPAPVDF
Briefly: Fluorescence Cell-Free Homogeneous Dose Retest to Identify Inhibitors of RecA-Intein Splicing Activity. [Related pubchem assays (depositor defined):AID2097, AID2223, AID489010, AID492950]. The class given is functional.

The nature of assay [6]: A Cell Based Secondary Assay To Explore Cytotoxicity of Compounds that Sensitize Mycobacterium Tuberculosis to Beta-Lactam Antibiotics. It is filed as functional.
The target in assay [7] is T5, Polyadenylate-binding protein 1 (Homo sapiens, UniProt P11940). Kind of assay: MLLE binding blockers, Cy5 peptide tracer – biochemical, fluorescence polarization, Cy5-PAM2 peptide, secondary, miRNA deadenylation inhibitor project, dose response (AID 602260). The class given is functional. As to conditions: read-out: IC50_Mean. (In general: Fluorescence polarisation rises when a labelled molecule tumbles more slowly, as on binding a larger partner.)

Assay [8] addresses T5, Polyadenylate-binding protein 1. Briefly: MLLE domain peptide-binding blockers, IC50 – biochemical, fluorescence polarization, FITC-PAM2 peptide, dose response (AID 602259). The class given is functional. As to conditions: read-out: IC50_Mean.
The target in assay [9] is Potassium voltage-gated channel subfamily KQT member 2 (Rattus norvegicus, UniProt O88943, W236L). Briefly: potentiation of rat KCNQ2 current – cell-based, automated electrophysiology, mechanism study for KCNQ2 potentiator project, dose response (AID 2603). The class given is functional.
Assay [10] has as its target T6, High affinity choline transporter 1 (Homo sapiens, UniProt Q9GZV3).
T6 sequence (Q9GZV3 whole entry): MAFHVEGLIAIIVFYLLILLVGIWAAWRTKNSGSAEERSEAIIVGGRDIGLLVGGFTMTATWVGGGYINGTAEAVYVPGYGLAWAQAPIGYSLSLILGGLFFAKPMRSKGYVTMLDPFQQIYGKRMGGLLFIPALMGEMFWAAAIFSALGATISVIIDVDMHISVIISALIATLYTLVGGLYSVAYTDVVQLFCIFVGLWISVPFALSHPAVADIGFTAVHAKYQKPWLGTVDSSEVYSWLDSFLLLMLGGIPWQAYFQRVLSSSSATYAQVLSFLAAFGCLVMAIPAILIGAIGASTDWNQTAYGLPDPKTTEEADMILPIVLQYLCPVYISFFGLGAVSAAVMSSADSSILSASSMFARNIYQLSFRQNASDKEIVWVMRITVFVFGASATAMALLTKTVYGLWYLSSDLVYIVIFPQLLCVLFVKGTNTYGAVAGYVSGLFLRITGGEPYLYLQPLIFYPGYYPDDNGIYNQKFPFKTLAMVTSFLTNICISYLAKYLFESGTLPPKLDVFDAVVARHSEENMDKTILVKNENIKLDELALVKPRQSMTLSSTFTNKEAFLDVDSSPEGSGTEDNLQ
Briefly: human choline transporter blockers, potency – cell-based, 5-point CRC, membrane potential dye, dose response (AID 504840). The class given is functional.

A further assay relates to Vero. Kind of assay: viability of Vero cells under compound – cytotoxicity control for flavivirus capping enzyme inhibitors (AID 588742). The class given is functional. As to conditions: Chlorocebus sabaeus.
Assay [11] concerns the target T6, High affinity choline transporter 1. Kind of assay: human choline transporter blockers, potency – cell-based, 10-point CRC, membrane potential dye, dose response (AID 588401).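 Note: membrane potential dye fluorescence of choline-evoked depolarization via CHT.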 The class given is functional.
Assay [12] is described as follows: reduction of Shn3 3'UTR-driven luciferase in osteoblasts – cell-based, Clone20 osteoblasts, firefly luciferase, cherry-picked, dose response (AID 624132).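 Note: firefly luciferase luminescence from reporter carrying the Shn3 3'UTR in osteoblasts.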 It is filed as functional.
A short description of assay [13]: non-specific 3'UTR reporter inhibition in Clone20-Shn3RL – cell-based, Renilla luciferase, cherry-picked, counter-screen for Shn3 inhibitor project, dose response (AID 624133). The class given is functional.
Assay [14] concerns the target T7, Microphthalmia-associated transcription factor (Homo sapiens, UniProt O75030).
T7 sequence (O75030 whole entry): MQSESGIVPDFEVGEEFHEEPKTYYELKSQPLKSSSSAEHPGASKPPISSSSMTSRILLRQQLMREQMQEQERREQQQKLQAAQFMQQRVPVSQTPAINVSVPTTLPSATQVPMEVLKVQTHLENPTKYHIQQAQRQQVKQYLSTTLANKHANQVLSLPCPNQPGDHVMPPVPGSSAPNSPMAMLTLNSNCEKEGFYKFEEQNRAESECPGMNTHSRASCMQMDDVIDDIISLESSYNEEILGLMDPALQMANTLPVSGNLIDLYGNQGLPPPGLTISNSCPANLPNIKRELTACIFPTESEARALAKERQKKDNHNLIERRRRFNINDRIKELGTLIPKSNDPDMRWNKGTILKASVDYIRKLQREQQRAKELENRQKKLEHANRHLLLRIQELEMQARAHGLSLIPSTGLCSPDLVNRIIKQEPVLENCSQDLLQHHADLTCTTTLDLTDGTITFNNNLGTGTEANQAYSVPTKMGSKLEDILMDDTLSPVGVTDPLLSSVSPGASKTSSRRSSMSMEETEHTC
Briefly: reducers of TRPM1 reporter luminescence, concentration series – cell-based, SK-MEL-5, cherry-picked, set 3, MITF inhibitor project, dose response (AID 493073).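 Note: SK-MEL-5 melanoma cells with luciferase driven by the MITF target TRPM1 promoter.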 It is filed as functional.

Activity calls are given as the source filed them.

Chain of Luciferin 4-monooxygenase (P08659 whole entry): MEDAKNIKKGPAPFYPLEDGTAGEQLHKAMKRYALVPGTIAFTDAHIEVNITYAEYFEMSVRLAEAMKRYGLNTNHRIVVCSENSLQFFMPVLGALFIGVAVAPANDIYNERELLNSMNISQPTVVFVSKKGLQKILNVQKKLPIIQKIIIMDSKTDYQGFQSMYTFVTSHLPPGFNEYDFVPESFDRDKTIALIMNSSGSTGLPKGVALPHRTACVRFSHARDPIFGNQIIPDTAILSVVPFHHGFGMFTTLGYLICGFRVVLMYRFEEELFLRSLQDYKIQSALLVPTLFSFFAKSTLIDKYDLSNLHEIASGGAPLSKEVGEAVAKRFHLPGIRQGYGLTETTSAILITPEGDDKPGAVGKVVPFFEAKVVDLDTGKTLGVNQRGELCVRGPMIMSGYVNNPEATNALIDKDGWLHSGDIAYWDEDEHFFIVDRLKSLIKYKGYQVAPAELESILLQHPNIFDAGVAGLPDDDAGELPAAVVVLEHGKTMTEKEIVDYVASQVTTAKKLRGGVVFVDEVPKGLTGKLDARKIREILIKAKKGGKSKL
T5 sequence (P11940 whole entry): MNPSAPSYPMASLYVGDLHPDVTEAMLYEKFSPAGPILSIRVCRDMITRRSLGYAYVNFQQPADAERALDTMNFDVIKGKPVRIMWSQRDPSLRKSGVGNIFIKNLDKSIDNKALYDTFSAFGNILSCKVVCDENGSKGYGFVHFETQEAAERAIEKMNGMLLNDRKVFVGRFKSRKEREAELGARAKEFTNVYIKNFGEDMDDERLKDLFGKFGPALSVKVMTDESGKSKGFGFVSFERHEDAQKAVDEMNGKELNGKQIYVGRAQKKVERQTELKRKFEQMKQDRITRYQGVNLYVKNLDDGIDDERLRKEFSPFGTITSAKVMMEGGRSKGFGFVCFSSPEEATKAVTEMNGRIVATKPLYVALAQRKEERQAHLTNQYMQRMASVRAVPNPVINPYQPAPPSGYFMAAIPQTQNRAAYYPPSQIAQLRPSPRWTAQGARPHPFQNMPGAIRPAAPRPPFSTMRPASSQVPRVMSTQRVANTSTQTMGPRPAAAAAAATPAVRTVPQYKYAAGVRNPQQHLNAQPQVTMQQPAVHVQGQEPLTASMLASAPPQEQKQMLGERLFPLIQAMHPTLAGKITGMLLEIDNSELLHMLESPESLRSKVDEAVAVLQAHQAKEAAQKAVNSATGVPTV
Chain of Potassium voltage-gated channel subfamily KQT member 2 (O88943 whole entry W236L): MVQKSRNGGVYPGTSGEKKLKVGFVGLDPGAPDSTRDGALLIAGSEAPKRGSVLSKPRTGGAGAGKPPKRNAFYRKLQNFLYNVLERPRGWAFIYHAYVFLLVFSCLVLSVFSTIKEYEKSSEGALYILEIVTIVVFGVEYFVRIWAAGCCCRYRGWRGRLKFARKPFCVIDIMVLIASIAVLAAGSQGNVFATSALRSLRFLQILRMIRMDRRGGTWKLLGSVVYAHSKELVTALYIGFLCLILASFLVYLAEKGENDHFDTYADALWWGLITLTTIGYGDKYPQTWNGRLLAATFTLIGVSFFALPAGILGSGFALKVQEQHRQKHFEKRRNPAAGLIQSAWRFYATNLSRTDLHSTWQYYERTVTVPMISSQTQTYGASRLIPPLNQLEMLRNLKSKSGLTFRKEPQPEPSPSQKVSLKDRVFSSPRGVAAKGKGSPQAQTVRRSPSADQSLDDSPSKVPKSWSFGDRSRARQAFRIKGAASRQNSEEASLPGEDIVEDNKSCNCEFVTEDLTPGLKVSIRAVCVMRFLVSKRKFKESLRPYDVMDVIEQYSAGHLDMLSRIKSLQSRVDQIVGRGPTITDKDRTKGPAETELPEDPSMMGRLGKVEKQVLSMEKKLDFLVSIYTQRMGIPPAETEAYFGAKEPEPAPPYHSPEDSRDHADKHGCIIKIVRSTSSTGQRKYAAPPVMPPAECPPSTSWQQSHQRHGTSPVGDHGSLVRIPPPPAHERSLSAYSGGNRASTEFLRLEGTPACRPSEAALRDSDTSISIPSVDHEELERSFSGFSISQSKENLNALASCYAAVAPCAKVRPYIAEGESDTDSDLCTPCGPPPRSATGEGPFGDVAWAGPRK

Consider `Cc1ccc(NC(=O)c2ccc3c(c2)OCCO3)cc1`, for which the EC50 (in general, the concentration needed to bring the measured effect to its halfway point) in [1] was 0.81 µM (active); in the assay with HT-1080, > 50 µM (not active).
Consider `O=C(CCl)NC(=O)NC12CC3CC(CC(C3)C1)C2`, for which, in assay [2], the IC50 is 0.87 µM (active). In addition, the EC50 in the assay on HEK293 was > 35.4 µM (not active); in assay [3], > 35.4 µM (not active); in [4] it was > 35.4 µM (not active); on Protein RecA it was 5.47 µM (active). The AC50 (as a rule, the concentration giving half of the maximal activity seen) in assay [5] was 12 µM (active).
Take `CCC(=O)N1CCN(c2ccc(NC(=S)NC(=O)c3ccc(OC)c([N+](=O)[O-])c3)cc2)CC1`: the CC50 (commonly the concentration at which the toxic effect on the cells reaches its halfway point) in [6] is > 40 µM (active). The IC50 in assay [7] and in assay [8] was > 66 µM (inactive) in each case.
Take `Cc1ccc(CS(=O)(=O)c2ncc(Cl)c(C(=O)Nc3nnc(C)s3)n2)cc1`: the values for the EC50 (in assay [9]; on Protein RecA) were 5.4 µM (active) and 16 µM (active), respectively. For the same compound, the AC50 in assay [5] was 14.2 µM (active); in assay [12], 0.639 µM (active); in [13] it was 6.75 µM (active). The IC50 in assay [10] was 4.05 µM (active); in assay [11], 3.98 µM (active). Besides, the CC50 in the assay on Vero is 17.4 µM (active).
In the case of `COc1ccc(/C(O)=C\C=N\c2ccccn2)cc1`, the EC50 is 73.2 µM (active) in [1] and > 50 µM (not active) with HT-1080. For the same compound, the AC50 in assay [14] was 3.72 µM (active).
Take `N#C/C(=C(/O)COC(=O)CCc1ccc(S(=O)(=O)N2CCOCC2)cc1)c1nc2ccccc2[nH]1`: the CC50 in assay [6] is > 40 µM (active).
